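Dose response: 5 concentrations. Exposure: 48 h. Format: 96-well plates. Endpoint: linear interpolation; highest concentration if not reached. The concentration for 50% growth inhibition is given as GI50.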 Active and inactive are the calls of the source. Cut-off read from the data, not from the text of the source: active = GI50 up to about 1.1 µM and inactive = higher.
Legend:
Test in all cases: inhibition of tumour cell growth, NCI panel, 48 h
[1] = tested on: TK-10
[2] = tested on: NCI-H23
[3] = tested on: SF-539
[4] = tested on: T47D
[5] = tested on: MCF7
[6] = tested on: KM12
[7] = tested on: COLO 205
[8] = tested on: LOX IMVI
[9] = tested on: HCT-15
[10] = tested on: HCC 2998
[11] = tested on: HOP-92
[12] = tested on: A549
[13] = tested on: PC-3
[14] = tested on: OVCAR-8
[15] = tested on: SR
[16] = tested on: IGROV-1
[17] = tested on: SNB-19
[18] = tested on: SK-MEL-2
[19] = tested on: M14
[20] = tested on: MDA-MB-231
[21] = tested on: UACC-257
[22] = tested on: UO-31
[23] = tested on: MDA-N
[24] = tested on: HOP-62
[25] = tested on: RXF 393
[26] = tested on: NCI-H226
[27] = tested on: MOLT-4
[28] = tested on: CCRF-CEM
[29] = tested on: OVCAR-3
[30] = tested on: 786-0
[31] = tested on: SK-MEL-28
[32] = tested on: NCI-H460
[33] = tested on: CAKI-1
[34] = tested on: ACHN
[35] = tested on: OVCAR-5
[36] = tested on: RPMI-8226
[37] = tested on: OVCAR-4
[38] = tested on: SF-295
[39] = tested on: SW-620
[40] = tested on: A498
[41] = tested on: K562
[42] = tested on: NCI/ADR-RES
[43] = tested on: SK-OV-3
[44] = tested on: SN12C
[45] = tested on: DU-145
[46] = tested on: HCT-116
[47] = tested on: UACC-62
[48] = tested on: Hs-578T
[49] = tested on: HT-29
[50] = tested on: Malme-3M
[51] = tested on: SF-268
[52] = tested on: BT-549
[53] = tested on: MDA-MB-435
[54] = tested on: NCI-H522
[55] = tested on: U-251
[56] = tested on: EKVX
[57] = tested on: SK-MEL-5
[58] = tested on: SNB-75
[59] = tested on: HL-60

Measured: GI50

COc1ncnc2c1cnn2Cc1cn(CCCCO)nn1
> 100 µM: [9]
inactive: [1] > 100 µM | [2] > 100 µM | [3] > 100 µM | [4] > 100 µM | [5] > 100 µM | [6] > 100 µM | [7] > 100 µM | [8] > 100 µM | [10] > 100 µM | [11] > 100 µM | [12] > 100 µM | [13] > 100 µM | [14] > 100 µM | [15] > 100 µM | [16] > 100 µM | [17] > 100 µM | [18] > 100 µM | [19] > 100 µM | [20] > 100 µM | [21] > 100 µM | [22] > 100 µM | [23] > 100 µM | [24] > 100 µM | [25] > 100 µM | [26] > 100 µM | [27] > 100 µM | [28] > 100 µM | [29] > 100 µM | [30] > 100 µM | [31] > 100 µM | [32] > 100 µM | [33] > 100 µM | [34] > 100 µM | [35] > 100 µM | [36] > 100 µM | [37] > 100 µM | [38] > 100 µM | [39] > 100 µM | [40] > 100 µM | [41] > 100 µM | [42] > 100 µM | [43] > 100 µM | [44] > 100 µM | [45] > 100 µM | [46] > 100 µM | [47] > 100 µM | [48] > 100 µM | [49] > 100 µM | [50] > 100 µM | [51] > 100 µM | [52] > 100 µM | [53] > 100 µM | [54] > 100 µM | [55] > 100 µM | [56] > 100 µM | [57] > 100 µM

CC1OC(n2cc(F)c(=O)[nH]c2=O)C(O[Si](C)(C)C(C)(C)C)C1O[Si](C)(C)C(C)(C)C (stereo not given)
inactive: [58] 15.5 µM | [1] 10.7 µM | [2] 10.6 µM | [3] 12.6 µM | [4] 10.2 µM | [5] 6.76 µM | [6] 11.9 µM | [7] 14.4 µM | [8] 16.2 µM | [10] 13.4 µM | [12] 15.8 µM | [13] 11 µM | [14] 14.7 µM | [15] 6.03 µM | [16] 13.3 µM | [17] 14.7 µM | [18] 16.3 µM | [19] 20.2 µM | [20] 5.78 µM | [21] 17.7 µM | [22] 12.8 µM | [23] 15.5 µM | [24] 21.5 µM | [25] 14 µM | [26] 16.2 µM | [27] 13.2 µM | [28] 16.6 µM | [29] 15 µM | [30] 14.6 µM | [33] 13.6 µM | [34] 14 µM | [35] 15.2 µM | [36] 11.6 µM | [37] 6.41 µM | [38] 11.5 µM | [39] 15 µM | [40] 14.2 µM | [41] 15.4 µM | [42] 12.7 µM | [43] 14.7 µM | [44] 12.4 µM | [45] 13.6 µM | [46] 13.9 µM | [47] 14.8 µM | [48] 14.3 µM | [59] 5.93 µM | [49] 10.8 µM | [50] 14.9 µM | [51] 12 µM | [52] 13.4 µM | [53] 17.9 µM | [54] 4.34 µM | [55] 13.9 µM | [56] 16.9 µM | [57] 14.9 µM
12.9 µM: [9]

CCOC(=O)Cn1c(=O)c(C)cn(COCCO)c1=O
inactive: [58] > 100 µM | [1] > 100 µM | [2] > 100 µM | [3] > 100 µM | [4] > 100 µM | [5] > 100 µM | [6] > 100 µM | [7] > 100 µM | [8] > 100 µM | [10] > 100 µM | [11] > 100 µM | [12] > 100 µM | [13] > 100 µM | [14] > 100 µM | [16] > 100 µM | [17] > 100 µM | [18] > 100 µM | [19] > 100 µM | [20] > 100 µM | [21] > 100 µM | [22] > 100 µM | [23] > 100 µM | [24] > 100 µM | [25] > 100 µM | [27] > 100 µM | [28] > 10 µM | [29] > 100 µM | [31] > 100 µM | [32] > 100 µM | [33] > 100 µM | [34] > 100 µM | [35] > 100 µM | [36] > 100 µM | [37] > 100 µM | [39] > 100 µM | [40] > 100 µM | [41] > 100 µM | [42] > 100 µM | [44] > 100 µM | [45] > 100 µM | [48] > 100 µM | [59] > 100 µM | [49] > 100 µM | [50] > 100 µM | [51] > 100 µM | [52] > 100 µM | [53] > 100 µM | [54] > 100 µM | [55] > 100 µM | [56] > 100 µM | [57] > 100 µM
active: [26] 0.155 µM
